Drawing on patent US8822467B2 (Ligand Pharmaceuticals Inc., priority 2009, dated 2014), this text covers IC50 for 32 compounds.

In general, IC50 refers to the midpoint of a concentration-inhibition curve.

For the test, the target named is T1, human CRTH2 (Homo sapiens, UniProt Q9Y5Y4).
T1 construct: expressed in transfected cells
T1 sequence (Q9Y5Y4 1-395): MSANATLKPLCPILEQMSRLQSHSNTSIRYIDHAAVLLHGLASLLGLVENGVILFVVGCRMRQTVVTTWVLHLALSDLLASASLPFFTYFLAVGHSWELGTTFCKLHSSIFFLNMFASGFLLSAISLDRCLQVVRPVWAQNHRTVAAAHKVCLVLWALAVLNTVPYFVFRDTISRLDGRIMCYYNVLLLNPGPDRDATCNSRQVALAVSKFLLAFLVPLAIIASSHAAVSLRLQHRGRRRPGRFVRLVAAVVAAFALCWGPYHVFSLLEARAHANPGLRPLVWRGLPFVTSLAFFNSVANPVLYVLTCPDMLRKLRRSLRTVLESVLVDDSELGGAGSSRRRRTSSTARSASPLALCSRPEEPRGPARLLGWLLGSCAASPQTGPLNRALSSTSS
Description: [35S]GTPγS binding assay (SPA) on membranes from CHO-K1 cells stably expressing human CRTH2, stimulated with 60 nM DHK-PGD2. It is filed as biochemical. As to conditions: potency class symbols; Table 2; read-out: CRTH2 hGTPγS IC50. A digest of the protocol: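 Read-out is scintillation proximity: bound [35S]GTPγS (500 pM, with 10 μM GDP) was counted 4 h after centrifuging a 2 h ambient-temperature incubation. Reactions held 4 μg human CRTH2 CHO-K1 membrane protein, 60 nM DHK-PGD2 agonist and test compounds at increasing concentrations. Buffer: 20 mM HEPES pH 7.4, 10 mM MgCl2, 300 mM NaCl, 0.2% BSA, 1% DMSO.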
In general terms: Binding of GTPγS marks nucleotide exchange on a G protein.
Turning to `CN(Cc1ccc(OCC(=O)O)c(-c2cncc(C(F)(F)F)c2)c1)S(=O)(=O)c1ccc(F)cc1` [Example 119, 2-(3-trifluoromethyl-5-pyridinyl)-4-((4-fluoro-N-methylphenylsulfonamido)methyl)phenoxyacetic acid], the concentration for half-maximal inhibition (IC50) fell in the range of 100 to 1000 nM.

With `CN(Cc1ccc(OCC(=O)O)c(-c2cccc(C(F)(F)F)c2)c1)S(=O)(=O)c1ccc(C#N)cc1` [Example 120, 2-(3-trifluoromethylphenyl)-4-((4-cyano-N-methylphenylsulfonamido)methyl)phenoxyacetic acid], the IC50 fell in the range of 100 to 1000 nM.

Turning to `COc1ccc(S(=O)(=O)N(C)Cc2ccc(OCC(=O)O)c(-c3cccc(C(F)(F)F)c3)c2)cc1` [Example 121, 2-(3-trifluoromethylphenyl)-4-((4-methoxy-N-methylphenylsulfonamido)methyl)phenoxyacetic acid], the IC50 was 100 to 1000 nM.

`CN(Cc1ccc(OCC(=O)O)c(-c2cccc(F)c2F)c1)S(=O)(=O)c1ccc(F)cc1` [Example 122, 2-(2,3-difluorophenyl)-4-((4-fluoro-N-methylphenylsulfonamido)methyl)phenoxyacetic acid]: the IC50 is 100 to 1000 nM.

On to `CN(Cc1ccc(OCC(=O)O)c(-c2ccc(S(C)(=O)=O)cc2)c1)S(=O)(=O)c1ccc(F)cc1` [Example 124, 2-(4-methylsulfonylphenyl)-4-((4-fluoro-N-methylphenylsulfonamido)methyl)phenoxyacetic acid], for which the IC50 fell in the range of 100 to 1000 nM.

Consider `CN(Cc1ccc(OCC(=O)O)c(-c2cccc(OC(F)(F)F)c2)c1)S(=O)(=O)c1ccc(F)cc1` [Example 125, 2-(3-trifluoromethoxyphenyl)-4-((4-fluoro-N-methylphenylsulfonamido)methyl)phenoxyacetic acid], for which the IC50 lay in the range of 100 to 1000 nM.

For the compound `CN(Cc1ccc(OCC(=O)O)c(-c2cccc(C(F)(F)F)c2)c1)S(=O)(=O)c1cccc(F)c1` [Example 126, 2-(3-trifluoromethylphenyl)-4-((3-fluoro-N-methylphenylsulfonamido)methyl)phenoxyacetic acid], the IC50 lay within 100 to 1000 nM.

Take `CN(Cc1ccc(OCC(=O)O)c(-c2cccc(C(F)(F)F)n2)c1)S(=O)(=O)c1ccc(F)cc1` [Example 127, 2-(6-trifluoromethyl-2-pyridinyl)-4-((4-fluoro-N-methylphenylsulfonamido)methyl)phenoxyacetic acid]: the IC50 was in the range of 100 to 1000 nM.

Regarding `CN(Cc1ccc(OCC(=O)O)c(-c2ccn3ccnc3c2)c1)S(=O)(=O)c1ccc(F)cc1` [Example 128, 2-(imidazo[1,2-a]pyridin-7-yl)-4-((4-fluoro-N-methylphenylsulfonamido)methyl)phenoxyacetic acid], the IC50 was in the range of 100 to 1000 nM.

For the compound `Cc1nnc(-c2cccc(-c3cc(CN(C)S(=O)(=O)c4ccc(F)cc4)ccc3OCC(=O)O)c2)o1` [Example 129, 2-(3-(5-methyl-1,3,4-oxadiazol-2-yl)phenyl)-4-((4-fluoro-N-methylphenylsulfonamido)methyl)phenoxyacetic acid], the IC50 fell in the range of 100 to 1000 nM.

As to `CN(Cc1ccc(OCC(=O)O)c(-c2cccc(F)c2)c1)S(=O)(=O)c1ccc(F)cc1` [Example 130, 2-(3-fluorophenyl)-4-((4-fluoro-N-methylphenylsulfonamido)methyl)phenoxyacetic acid], the IC50 lay in the range of 100 to 1000 nM.

As to `CN(Cc1ccc(OCC(=O)O)c(-c2cccc(C(F)(F)F)c2)c1)S(=O)(=O)c1ccccc1` [Example 131, 2-(3-trifluoromethylphenyl)-4-((N-methylphenylsulfonamido)methyl)phenoxyacetic acid], the half-inhibitory concentration (IC50) was in the range of 100 to 1000 nM.

As for `CN(Cc1ccc(OCC(=O)O)c(-c2cccc(O)c2)c1)S(=O)(=O)c1ccc(F)cc1` [Example 132, 2-(3-hydroxyphenyl)-4-((4-fluoro-N-methylphenylsulfonamido)methyl)phenoxyacetic acid], the IC50 fell in the range of 100 to 1000 nM.

As to `COc1cccc(-c2cc(CN(C)S(=O)(=O)c3ccc(F)cc3)ccc2OCC(=O)O)c1` [Example 133, 2-(3-methoxyphenyl)-4-((4-fluoro-N-methylphenylsulfonamido)methyl)phenoxyacetic acid], the IC50 was in the range of 100 to 1000 nM.

Consider `CN(Cc1ccc(OCC(=O)O)c(-c2cccc(C(F)(F)F)c2)c1)S(=O)(=O)c1ccc(S(C)(=O)=O)cc1` [Example 134, 2-(3-trifluoromethylphenyl)-4-((4-methylsulfonyl-N-methylphenylsulfonamido)methyl)phenoxyacetic acid], for which the IC50 was in the range of 100 to 1000 nM.

Regarding `CNC(=O)c1cccc(-c2cc(CN(C)S(=O)(=O)c3ccc(F)cc3)ccc2OCC(=O)O)c1` [Example 135, 2-(3-N-methylaminocarbonylphenyl)-4-((4-fluoro-N-methylphenylsulfonamido)methyl)phenoxyacetic acid], the IC50 was 100 to 1000 nM.

As for `CN(Cc1cc(F)c(OCC(=O)O)c(-c2cccc(C#N)c2)c1)S(=O)(=O)c1ccc(F)cc1` [Example 136, 2-(3-cyanophenyl)-4-((4-fluoro-N-methylphenylsulfonamido)methyl)-6-fluorophenoxyacetic acid], the IC50 fell in the range of 100 to 1000 nM.

As to `CN(Cc1ccc(OCC(=O)O)c(-c2cccc(C(F)(F)F)c2)c1)S(=O)(=O)c1cc(F)cc(F)c1` [Example 137, 2-(3-trifluoromethylphenyl)-4-((3,5-difluoro-N-methylphenylsulfonamido)methyl)phenoxyacetic acid], the IC50 lay within 100 to 1000 nM.

On to `CN(C)C(=O)c1cccc(-c2cc(CN(C)S(=O)(=O)c3ccc(F)cc3)ccc2OCC(=O)O)c1` [Example 138, 2-(3-dimethylaminocarbonylphenyl)-4-((4-fluoro-N-methylphenylsulfonamido)methyl)phenoxyacetic acid], for which the IC50 was in the range of 100 to 1000 nM.

Take `CN(Cc1cc(F)c(OCC(=O)O)c(-c2cc(F)cc(F)c2)c1)S(=O)(=O)c1ccc(F)cc1` [Example 139, 2-(3,5-difluorophenyl)-4-((4-fluoro-N-methylphenylsulfonamido)methyl)-6-fluorophenoxyacetic acid]: the IC50 was in the range of 100 to 1000 nM.

With `CCN(Cc1ccc(OCC(=O)O)c(-c2cccc(C(F)(F)F)c2)c1)S(=O)(=O)c1ccc(F)cc1` [Example 140, 2-(3-trifluoromethylphenyl)-4-((4-fluoro-N-ethylphenylsulfonamido)methyl)phenoxyacetic acid], the IC50 lay in the range of 100 to 1000 nM.

For `COC(=O)c1cccc(-c2cc(CN(C)S(=O)(=O)c3ccc(F)cc3)ccc2OCC(=O)O)c1` [Example 141, 2-(3-methoxycarbonylphenyl)-4-((4-fluoro-N-methylphenylsulfonamido)methyl)phenoxyacetic acid], the IC50 lay in the range of 100 to 1000 nM.

Turning to `CN(Cc1ccc(OCC(=O)O)c(-c2cccc(Br)c2)c1)S(=O)(=O)c1ccc(F)cc1` [Example 142, 2-(3-bromophenyl)-4-((4-fluoro-N-methylphenylsulfonamido)methyl)phenoxyacetic acid], the half-inhibitory concentration (IC50) was 100 to 1000 nM.

Turning to `CN(Cc1ccc(OCC(=O)O)c(-c2cccc(C(F)(F)F)c2)c1)S(=O)(=O)c1cccc2cccnc12` [Example 143, 2-(3-trifluoromethylphenyl)-4-((N-methylquinoline-8-sulfonamido)methyl)phenoxyacetic acid], the IC50 fell in the range of 100 to 1000 nM.

As to `CN(Cc1ccc(OCC(=O)O)c(-c2ccc(F)c(F)c2)c1)S(=O)(=O)c1ccc(F)cc1` [Example 144, 2-(3,4-difluorophenyl)-4-((4-fluoro-N-methylphenylsulfonamido)methyl)phenoxyacetic acid], the IC50 is 100 to 1000 nM.

For the compound `CN(Cc1ccc(OCC(=O)O)c(-c2cccc(C(F)(F)F)c2)c1)S(=O)(=O)c1cccc2ccccc12` [Example 145, 2-(3-trifluoromethylphenyl)-4-((N-methylnaphthalene-1-sulfonamido)methyl)phenoxyacetic acid], the IC50 was in the range of 100 to 1000 nM.

On to `COc1ccccc1S(=O)(=O)N(C)Cc1ccc(OCC(=O)O)c(-c2cccc(C(F)(F)F)c2)c1` [Example 146, 2-(3-trifluoromethylphenyl)-4-((2-methoxy-N-methylphenylsulfonamido)methyl)phenoxyacetic acid], for which the IC50 lay in the range of 100 to 1000 nM.

Turning to `CN(Cc1ccc(OCC(=O)O)c(-c2cccnc2)c1)S(=O)(=O)c1ccc(F)cc1` [Example 147, 2-(3-pyridinyl)-4-((4-fluoro-N-methylphenylsulfonamido)methyl)phenoxyacetic acid], the IC50 was in the range of 100 to 1000 nM.

`CN(Cc1ccc(OCC(=O)O)c(-c2cccc(C(F)(F)F)c2)c1)S(=O)(=O)c1ccc2ccccc2c1` [Example 148, 2-(3-trifluoromethylphenyl)-4-((N-methylnaphthalene-2-sulfonamido)methyl)phenoxyacetic acid]: the IC50 was in the range of 100 to 1000 nM.

`CN(Cc1ccc(OCC(=O)O)c(-c2cccc(C(F)(F)F)c2)c1)S(=O)(=O)c1cccnc1` [Example 149, 2-(3-trifluoromethylphenyl)-4-((N-methylpyridine-3-sulfonamido)methyl)phenoxyacetic acid]: the IC50 fell in the range of 100 to 1000 nM.

On to `CN(Cc1ccc(OCC(=O)O)c(-c2cc(F)cc(Cl)c2)c1)S(=O)(=O)c1ccccc1` [Example 150, 2-(3-chloro-5-fluorophenyl)-4-((-N-methylphenylsulfonamido)methyl)phenoxyacetic acid], for which the IC50 lay within 100 to 1000 nM.

With `COc1cccc(-c2cc(CN(C)S(=O)(=O)c3ccccc3)ccc2OCC(=O)O)c1` [Example 151, 2-(3-methoxyphenyl)-4-((-N-methylphenylsulfonamido)methyl)phenoxyacetic acid], the IC50 is 1000 to 10000 nM.
